# Test results taken from patent publication US8026247B2, “Bicyclic amides as kinase inhibitors” (Novartis AG, priority 2004, dated 2011).
row,SMILES,melting point [°C]
1,"CNc1cc(Oc2ccc3c(c2)OCCN3C(=O)Nc2ccc(C)c(C(F)(F)F)c2)ncn1 [Example 8, 7-(6-Methylamino-pyrimidin-4-yloxy)-2,3-dihydro-benzo[1,4]oxazine-4-carboxylic acid (4-methyl-3-trifluoromethyl-phenyl)-amide]",180 to 182
2,"CNc1cc(Oc2ccc3c(c2)OCCN3C(=O)Nc2cccc(C(F)(F)F)c2)ncn1 [Example 9, 7-(6-Methylamino-pyrimidin-4-yloxy)-2,3-dihydro-benzo[1,4]oxazine-4-carboxylic acid (3-trifluoromethyl-phenyl)-amide]",180
3,"Nc1nccc(Oc2ccc3c(c2)OCCN3C(=O)Nc2cccc(C(F)(F)F)c2)n1 [Example 10, 7-(2-Amino-pyrimidin-4-yloxy)-2,3-dihydro-benzo[1,4]oxazine-4-carboxylic acid (3-trifluoromethyl-phenyl)-amide]",161 to 163
4,"Nc1nc(Cl)cc(Oc2ccc3c(C(=O)Nc4cccc(C(F)(F)F)c4)cccc3c2)n1 [Example 13, 6-(2-Amino-6-chloro-pyrimidin-4-yloxy)-naphthalene-1-carboxylic acid (3-trifluoromethyl-phenyl)-amide]",234 to 236
5,"CC(=O)Nc1nccc(Oc2ccc3c(C(=O)Nc4cccc(C(F)(F)F)c4)cccc3c2)n1 [Example 18, 6-(2-Acetylamino-pyrimidin-4-yloxy)-naphthalene-1-carboxylic acid (3-trifluoromethyl-phenyl)-amide]",216 to 217
6,"COC(=O)Nc1nccc(Oc2ccc3c(C(=O)Nc4cccc(C(F)(F)F)c4)cccc3c2)n1 [Example 19, 6-(2-Methoxycarbonylamino-pyrimidin-4-yloxy)-naphthalene-1-carboxylic acid (3-trifluoromethyl-phenyl)-amide]",199 to 200
7,"Nc1cc(Oc2ccc3c(C(=O)Nc4ccc(F)c(C(F)(F)F)c4)cccc3c2)ncn1 [Example 25, 6-(6-Amino-pyrimidin-4-yloxy)-naphthalene-1-carboxylic acid (4-fluoro-3-trifluoromethyl-phenyl)-amide]",224 to 225
8,"Nc1cc(Oc2ccc3c(C(=O)Nc4cccc(C(F)(F)F)c4)cccc3c2)ncn1 [Example 26, 6-(6-Amino-pyrimidin-4-yloxy)-naphthalene-1-carboxylic acid (3-trifluoromethyl-phenyl)-amide]",243 to 244
9,"CNc1cc(Oc2ccc3c(C(=O)Nc4ccc(N5CCOCC5)c(C(F)(F)F)c4)cccc3c2)ncn1 [Example 40, 6-(6-Methylamino-pyrimidin-4-yloxy)-naphthalene-1-carboxylic acid (4-morpholin-4-yl-3-trifluoromethyl-phenyl)-amide]",156 to 157
10,"N#Cc1cc(Oc2ccc3c(C(=O)Nc4cccc(C(F)(F)F)c4)cccc3c2)ncn1 [Example 43, 6-(6-Cyano-pyrimidin-4-yloxy)-naphthalene-1-carboxylic acid (3-trifluoromethyl-phenyl)-amide]",167
11,"CC(C)NC(=O)c1cc(Oc2ccc3c(C(=O)Nc4cccc(C(F)(F)F)c4)cccc3c2)ncn1 [Example 51, 6-[5-(3-Trifluoromethyl-phenylcarbamoyl)-naphthalen-2-yloxy]-pyrimidine-4-carboxylic acid isopropylamide]",205 to 208
12,"O=C(Nc1cccc(C(F)(F)F)c1)c1cccc2cc(Oc3cc(CCl)ncn3)ccc12 [Example 53, 6-(6-Chloromethyl-pyrimidin-4-yloxy)-naphthalene-1-carboxylic acid (3-trifluoromethyl-phenyl)-amide]",178 to 181
13,"CNCc1cc(Oc2ccc3c(C(=O)Nc4cccc(C(F)(F)F)c4)cccc3c2)ncn1 [Example 54, 6-(6-Methylaminomethyl-pyrimidin-4-yloxy)-naphthalene-1-carboxylic acid (3-trifluoromethyl-phenyl)-amide]",141 to 143
14,"CN(C)Cc1cc(Oc2ccc3c(C(=O)Nc4cccc(C(F)(F)F)c4)cccc3c2)ncn1 [Example 55, 6-(6-Dimethylaminomethyl-pyrimidin-4-yloxy)-naphthalene-1-carboxylic acid (3-trifluoromethyl-phenyl)-amide]",180 to 181
15,"Nc1cc(Sc2ccc3c(C(=O)Nc4ccc(F)c(C(F)(F)F)c4)cccc3c2)ncn1 [Example 57, 6-(6-Amino-pyrimidin-4-ylsulfanyl)-naphthalene-1-carboxylic acid (4-fluoro-3-trifluoromethyl-phenyl)-amide]",221
16,"Nc1cc(Sc2ccc3c(C(=O)Nc4cccc(C(F)(F)F)c4)cccc3c2)ncn1 [Example 58, 6-(6-Amino-pyrimidin-4-ylsulfanyl)-naphthalene-1-carboxylic acid (3-trifluoromethyl-phenyl)-amide]",205
17,"Nc1cc(S(=O)(=O)c2ccc3c(C(=O)Nc4cccc(C(F)(F)F)c4)cccc3c2)ncn1 [Example 60, 6-(6-Amino-pyrimidine-4-sulfonyl)-naphthalene-1-carboxylic acid (3-trifluoromethyl-phenyl)-amide]",229 to 231
18,"Nc1cc(Sc2ccc3c(C(=O)Nc4cccc(OC(F)(F)F)c4)cccc3c2)ncn1 [Example 61, 6-(6-Amino-pyrimidin-4-ylsulfanyl)-naphthalene-1-carboxylic acid (3-trifluoromethoxy-phenyl)-amide]",197 to 199
19,"CCCCOC(=O)c1cc(Oc2ccc3c(C(=O)Nc4cccc(C(F)(F)F)c4)cccc3c2)ccn1 [Example 64, 4-[5-(3-Trifluoromethyl-phenylcarbamoyl)-naphthalen-2-yloxy]-pyridine-2-carboxylic acid butyl ester]",128 to 130
20,"CNC(=O)c1cc(Oc2ccc3c(C(=O)Nc4cccc(C(F)(F)F)c4)cccc3c2)ccn1 [Example 65, 4-[5-(3-Trifluoromethyl-phenylcarbamoyl)-naphthalen-2-yloxy]-pyridine-2-carboxylic acid methylamide]",175 to 177
21,"NC(=O)c1cc(Oc2ccc3c(C(=O)Nc4cccc(C(F)(F)F)c4)cccc3c2)ccn1 [Example 66, 4-[5-(3-Trifluoromethyl-phenylcarbamoyl)-naphthalen-2-yloxy]-pyridine-2-carboxylic acid amide]",117 to 120
22,"CN(C)CCNC(=O)c1cc(Oc2ccc3c(C(=O)Nc4cccc(C(F)(F)F)c4)cccc3c2)ccn1 [Example 67, 4-[5-(3-Trifluoromethyl-phenylcarbamoyl)-naphthalen-2-yloxy]-pyridine-2-carboxylic acid (2-dimethylamino-ethyl)-amide]",80 to 82
23,"Nc1cc(Oc2ccc3c(C(=O)Nc4cccc(C(F)(F)F)c4)cccc3c2)ccn1 [Example 68, 6-(2-Amino-pyridin-4-yloxy)-naphthalene-1-carboxylic acid (3-trifluoromethyl-phenyl)-amide]",222 to 224
24,"COC(=O)Nc1cc(Oc2ccc3c(C(=O)Nc4cccc(C(F)(F)F)c4)cccc3c2)ccn1 [Example 69, {4-[5-(3-Trifluoromethyl-phenylcarbamoyl)-naphthalen-2-yloxy]-pyridin-2-yl}-carbamic acid methyl ester]",230 to 232
25,"Nc1nccc(CCc2ccc3c(C(=O)Nc4cccc(C(F)(F)F)c4)cccc3c2)n1 [Example 70, 6-[2-(2-Amino-pyrimidin-4-yl)-ethyl]-naphthalene-1-carboxylic acid (3-trifluoromethyl-phenyl)-amide]",225 to 227
26,"Nc1cc(C#Cc2ccc3c(C(=O)Nc4cccc(C(F)(F)F)c4)cccc3c2)ncn1 [Example 71, 6-(6-Amino-pyrimidin-4-ylethynyl)-naphthalene-1-carboxylic acid (3-trifluoromethyl-phenyl)-amide]",217 to 220
27,"CC(C)c1ccc(-n2nc(C(C)(C)C)cc2NC(=O)c2cncc3cc(Oc4cc(N)ncn4)ccc23)cc1 [Example 93, 7-(6-Amino-pyrimidin-4-yloxy)-isoquinoline-4-carboxylic acid [5-tert-butyl-2-(4-isopropyl-phenyl)-2H-pyrazol-3-yl]-amide]",131 to 133
28,"CC(C)(C)c1cc(NC(=O)c2cncc3cc(Oc4cc(N)ncn4)ccc23)n(-c2ccc(F)cc2)n1 [Example 94, 7-(6-Amino-pyrimidin-4-yloxy)-isoquinoline-4-carboxylic acid [5-tert-butyl-2-(4-fluoro-phenyl)-2H-pyrazol-3-yl]-amide]",124 to 126
29,"CNc1cc(Oc2ccc3c(C(=O)Nc4ccc(F)c(C(F)(F)F)c4)cncc3c2)ncn1 [Example 95, 7-(6-Methylamino-pyrimidin-4-yloxy)-isoquinoline-4-carboxylic acid (4-fluoro-3-trifluoromethyl-phenyl)-amide]",255 to 257
30,"CNc1cc(Oc2ccc3c(C(=O)Nc4cccc(C(F)(F)F)c4)cncc3c2)ncn1 [Example 96, 7-(6-Methylamino-pyrimidin-4-yloxy)-isoquinoline-4-carboxylic acid (3-trifluoromethyl-phenyl)-amide]",205 to 208
